Where “and” joins values, the source holds several entries; their conditions need not be identical. Identical values can stand only once.
Biological target: MAPK14 (UniProt Q16539)
Assay: Inhibition of MAPK14 Kinase Activity

Chain of MAPK14 (Q16539 whole entry, looked up): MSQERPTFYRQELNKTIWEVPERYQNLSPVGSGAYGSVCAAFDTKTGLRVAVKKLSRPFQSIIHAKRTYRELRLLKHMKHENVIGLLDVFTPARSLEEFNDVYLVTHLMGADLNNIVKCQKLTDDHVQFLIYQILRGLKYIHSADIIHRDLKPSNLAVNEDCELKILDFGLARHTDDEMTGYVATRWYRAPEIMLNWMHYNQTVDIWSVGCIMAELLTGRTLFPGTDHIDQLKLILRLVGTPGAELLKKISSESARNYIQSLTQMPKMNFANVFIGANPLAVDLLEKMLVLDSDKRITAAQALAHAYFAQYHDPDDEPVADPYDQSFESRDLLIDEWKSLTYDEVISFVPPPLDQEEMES

SMILES	IC50
Cn1nc(C(C)(C)C)cc1NC(=O)Nc1cccc(OC2CCN(C(=O)c3ccc(Cl)s3)CC2)c1	< 5 µM
Cn1nc(C(C)(C)C)cc1NC(=O)Nc1ccc(CN2CCN(C(=O)c3ccc(F)cc3F)CC2)cc1	< 5 µM
COc1ccc(C(=O)N2CCC(Oc3ccc(NC(=O)Nc4cc(C(C)(C)C)nn4C)cc3)CC2)c(OC)n1	< 5 µM
Cn1nc(C(C)(C)C)cc1NC(=O)Nc1ccc(CN2CCN(C(=O)c3c(F)cccc3F)CC2)cc1	0.01 µM and < 5 µM
Cc1ccc(-n2nc(C(C)(C)C)cc2NC(=O)Nc2ccc(N3CCN(C(=O)CC(C)(C)C)CC3)cc2)cc1	< 5 µM
Cn1nc(C(C)(C)C)cc1NC(=O)Nc1ccc(OC2CCN(C(=O)C(C)(C)C)CC2)cc1	< 5 µM
Cc1ccc(-n2nc(C(C)(C)C)cc2NC(=O)Nc2ccc(CN3CCN(C(=O)C4CC4)CC3)cc2)cc1	< 5 µM
Cc1ccsc1C(=O)N1CCC(Oc2cc(F)cc(NC(=O)Nc3cc(C(C)(C)C)nn3C)c2)CC1	< 5 µM
Cn1nc(C(C)(C)C)cc1NC(=O)Nc1cc(F)cc(OC2CCN(C(=O)C3CC3(Cl)Cl)CC2)c1 (stereo not given)	< 5 µM
Cn1nc(C(C)(C)C)cc1NC(=O)Nc1ccc(OC2CCN(C(=O)c3cc[nH]c3)CC2)cc1	< 5 µM
Cc1ccc(-n2nc(C(C)(C)C)cc2NC(=O)Nc2ccc(N3CCN(S(=O)(=O)C(C)C)CC3)cc2)cc1	< 5 µM
Cn1nc(C(C)(C)C)cc1NC(=O)Nc1cc(F)cc(OC2CCN(C(=O)c3ccccc3Cl)CC2)c1	< 5 µM
Cn1nc(C(C)(C)C)cc1NC(=O)Nc1cc(F)cc(OC2CCN(C(=O)c3ccc4[nH]ccc4c3)CC2)c1	< 5 µM
Cc1ccc(-n2nc(C(C)(C)C)cc2NC(=O)Nc2ccc(N3CCN(C(=O)C4CCC4)CC3)cc2)cc1	< 5 µM
Cn1nc(C(C)(C)C)cc1NC(=O)Nc1ccc(CN2CCN(C(=O)c3ccccc3)CC2)cc1	< 5 µM
Cn1nc(C(C)(C)C)cc1NC(=O)Nc1cccc(OC2CCN(C(=O)c3ccccc3)CC2)c1	< 5 µM
Cn1nc(C(C)(C)C)cc1NC(=O)Nc1cccc(OC2CCN(C(=O)c3ccccc3Cl)CC2)c1	< 5 µM
CC(C)n1nc(C(C)(C)C)cc1NC(=O)Nc1ccc(CN2CCN(C(=O)c3ccc(F)cc3F)CC2)c(F)c1	< 5 µM
Cn1nc(C(C)(C)C)cc1NC(=O)Nc1cc(F)cc(OC2CCN(C(=O)c3ccccc3C(F)(F)F)CC2)c1	< 5 µM
Cn1nc(C(C)(C)C)cc1NC(=O)Nc1cccc(OC2CCN(C(=O)c3c(F)cccc3F)CC2)c1	< 5 µM
Cn1nc(C(C)(C)C)cc1NC(=O)Nc1ccc(OC2CCN(C(=O)c3cccnc3Cl)CC2)cc1	< 5 µM
Cn1nc(C(C)(C)C)cc1NC(=O)Nc1cccc(OC2CCN(C(=O)c3ccccc3F)CC2)c1	< 5 µM

SMILES	IC50
Cn1nc(C(C)(C)C)cc1NC(=O)Nc1cc(F)cc(OC2CCN(C(=O)c3cccc4cc[nH]c34)CC2)c1	< 5 µM
Cn1nc(C(C)(C)C)cc1NC(=O)Nc1cc(F)cc(OC2CCN(C(=O)c3c(F)cccc3F)CC2)c1	< 5 µM
Cc1ccc(-n2nc(C(C)(C)C)cc2NC(=O)Nc2ccc(N3CCN(C(=O)C(C)(C)C)CC3)cc2)cc1	0.091 µM
Cc1ccc(-n2nc(C(C)(C)C)cc2NC(=O)Nc2ccc(N3CCN(C(=O)c4c(F)cccc4F)CC3)cc2)cc1	< 5 µM
Cc1ccc(OC2CCN(C(=O)c3ccccc3Cl)CC2)cc1NC(=O)Nc1cc(C(C)(C)C)nn1C	< 5 µM
CCCC(C)(C)C(=O)N1CCN(c2ccc(NC(=O)Nc3cc(C(C)(C)C)nn3-c3ccc(C)cc3)cc2)CC1	< 5 µM
Cn1nc(C(C)(C)C)cc1NC(=O)Nc1cc(F)cc(OC2CCN(C(=O)c3cccc(CN4CCOCC4)c3)CC2)c1	< 5 µM
Cn1nc(C(C)(C)C)cc1NC(=O)Nc1ccc(OC2CCN(C(=O)c3c[nH]cn3)CC2)cc1	< 5 µM
CC(C)n1nc(C(C)(C)C)cc1NC(=O)Nc1ccc(CN2CCN(C(=O)c3c(F)cccc3F)CC2)cc1	< 5 µM
Cn1nc(C(C)(C)C)cc1NC(=O)Nc1ccc(N2CCN(C(=O)c3c(Cl)cccc3Cl)CC2)cc1	< 5 µM
Cn1nc(C(C)(C)C)cc1NC(=O)Nc1cc(OC2CCN(C(=O)c3ccccc3Cl)CC2)cc(C(F)(F)F)c1	< 5 µM
CC(C)(C)c1cc(NC(=O)Nc2ccc(OC3CCN(C(=O)c4ccccc4Cl)CC3)cc2)[nH]n1	< 5 µM
Cn1nc(C(C)(C)C)cc1NC(=O)Nc1ccc(OC2CCN(C(=O)Oc3ccccc3C(F)(F)F)CC2)cc1	< 5 µM
Cn1nc(C(C)(C)C)cc1NC(=O)Nc1cc(F)cc(OC2CCN(C(=O)c3ccc4cc[nH]c4c3)CC2)c1	< 5 µM
COc1cccc(F)c1C(=O)N1CCC(Oc2cc(F)cc(NC(=O)Nc3cc(C(C)(C)C)nn3C)c2)CC1	< 5 µM
COc1ccccc1C(=O)N1CCN(Cc2ccc(NC(=O)Nc3cc(C(C)(C)C)nn3C)cc2)CC1	< 5 µM
Cn1nc(C(C)(C)C)cc1NC(=O)Nc1cc(F)cc(OC2CCN(C(=O)c3cc4ccccc4[nH]3)CC2)c1	< 5 µM
Cn1nc(C(C)(C)C)cc1NC(=O)Nc1cccc(OC2CCN(C(=O)OCc3ccccc3)CC2)c1	< 5 µM
Cc1cc(C(=O)N2CCC(Oc3cc(F)cc(NC(=O)Nc4cc(C(C)(C)C)nn4C)c3)CC2)c(C)[nH]1	< 5 µM
COc1ccc(C(=O)N2CCC(Oc3cccc(NC(=O)Nc4cc(C(C)(C)C)nn4C)c3)CC2)c(OC)n1	< 5 µM
Cn1nc(C(C)(C)C)cc1NC(=O)Nc1ccc(CN2CCN(C(=O)c3cc(Cl)sc3Cl)CC2)cc1	< 5 µM
Cc1ccc(-n2nc(C(C)(C)C)cc2NC(=O)Nc2ccc(N3CCN(C(=O)CC4CCCC4)CC3)cc2)cc1	< 5 µM

SMILES	IC50
Cn1nc(C(C)(C)C)cc1NC(=O)Nc1cc(F)cc(OC2CCN(C(=O)c3c(Cl)cccc3Cl)CC2)c1	< 5 µM
Cc1ccc(-n2nc(C(C)(C)C)cc2NC(=O)Nc2ccc(CN3CCN(C(=O)c4c(Cl)cccc4Cl)CC3)cc2)cc1	< 5 µM
Cn1nc(C(C)(C)C)cc1NC(=O)Nc1ccc(OC2CCN(C(=O)c3ccccc3)CC2)cc1	< 5 µM
Cn1nc(C(C)(C)C)cc1NC(=O)Nc1ccc(OC2CCN(C(=O)c3c(Cl)cncc3Cl)CC2)cc1	< 5 µM
Cn1nc(C(C)(C)C)cc1NC(=O)Nc1cccc(OC2CCN(C(=O)c3ccccc3C(F)(F)F)CC2)c1	< 5 µM
Cn1nc(C(C)(C)C)cc1NC(=O)Nc1ccc(OC2CCN(C(=O)c3ccccc3F)CC2)cc1	< 5 µM
CCn1nc(C(C)(C)C)cc1NC(=O)Nc1ccc(CN2CCN(C(=O)c3c(F)cccc3F)CC2)cc1	< 5 µM
Cn1nc(C(C)(C)C)cc1NC(=O)Nc1ccc(CN2CCN(C(=O)c3cccnc3)CC2)cc1	< 5 µM
Cn1nc(C(C)(C)C)cc1NC(=O)Nc1ccc(OC2CCN(C(=O)c3c(F)cccc3F)CC2)cc1	< 5 µM
CCn1nc(C(C)(C)C)cc1NC(=O)Nc1ccc(CN2CCN(C(=O)c3c(Cl)cccc3Cl)CC2)cc1F	< 5 µM
Cn1nc(C(C)(C)C)cc1NC(=O)Nc1ccc(OC2CCN(C(=O)C3CC3)CC2)cc1	< 5 µM
COc1ccc(C(=O)N2CCC(Oc3cc(F)cc(NC(=O)Nc4cc(C(C)(C)C)nn4C)c3)CC2)c(OC)n1	< 5 µM
Cn1nc(C(C)(C)C)cc1NC(=O)Nc1ccc(CN2CCN(C(=O)c3ccc(F)cc3F)CC2)c(F)c1	< 5 µM
Cc1ccc(-n2nc(C(C)(C)C)cc2NC(=O)Nc2cc(F)cc(OC3CCN(C(=O)c4ccccc4F)CC3)c2)cc1	< 5 µM
CO[C@H](C)C(=O)N1CCN(c2ccc(NC(=O)Nc3cc(C(C)(C)C)nn3-c3ccc(C)cc3)cc2)CC1	< 5 µM
Cn1nc(C(C)(C)C)cc1NC(=O)Nc1ccc(OC2CCN(C(=O)C3(c4ccccc4)CC3)CC2)cc1	< 5 µM
Cn1nc(C(C)(C)C)cc1NC(=O)Nc1ccc(OC2CCN(C(=O)c3ccncc3)CC2)cc1	< 5 µM
CC(=O)N1CCN(Cc2ccc(NC(=O)Nc3cc(C(C)(C)C)nn3C)cc2)CC1	< 5 µM
Cn1nc(C(C)(C)C)cc1NC(=O)Nc1cc(OC2CCN(C(=O)c3c(F)cccc3F)CC2)cc(C(F)(F)F)c1	< 5 µM
Cn1nc(C(C)(C)C)cc1NC(=O)Nc1cccc(OC2CCN(C(=O)c3c(F)cccc3Cl)CC2)c1	< 5 µM
Cc1ccc(-n2nc(C(C)(C)C)cc2NC(=O)Nc2ccc(N3CCN(S(=O)(=O)C4CC4)CC3)cc2)cc1	< 5 µM

From the Kinase Knowledgebase extract (Sharma et al. 2016)
